Experimental findings from ChEMBL document CHEMBL4052775, “Design, synthesis and in vitro anti-mycobacterial evaluation of gatifloxacin-1H-1,2,3-triazole-isatin hybrids” (Bioorg Med Chem Lett, 2017) are described below.

The structures appear in SMILES notation. ≈ marks a conversion by molar mass, not a printed value. Where only a bound is given, the exact number is not on record here.

This experiment has as its system Mycobacterium tuberculosis. In words: Antimycobacterial activity against isoniazid/rifampicin/ethambutol-resistant Mycobacterium tuberculosis 09710 by two fold dilution method. It is filed as functional.
The term MIC denotes the smallest concentration in the dilution series that meets the test's criterion for growth inhibition. In turn, `COc1c(N2CCNC(C)C2)c(F)cc2c(=O)c(C(=O)O)cn(C3CC3)c12` (stereo not drawn) [GATIFLOXACIN] yielded an MIC of 1 mg/L (≈ 2.66 µM). In turn, `NNC(=O)c1ccncc1` [ISONIAZID] displayed an MIC of over 128 mg/L. As for `CO[C@H]1/C=C/O[C@@]2(C)Oc3c(C)c(O)c4c(O)c(c(/C=N/N5CCN(C)CC5)c(O)c4c3C2=O)NC(=O)/C(C)=C\C=C\[C@H](C)[C@H](O)[C@@H](C)[C@@H](O)[C@@H](C)[C@H](OC(C)=O)[C@@H]1C` [RIFAMPIN], inhibition of growth (MIC) required 32 mg/L (≈ 38.9 µM).
